This is an account of results in US20260055096A1, “AZOLE PESTICIDAL COMPOUNDS” (BASF SE, priority 2022, published 2026).

What is called mortality is the share of the test organisms that died.

What all share (type): in vivo
Experiment [1] deals with tobacco budworm (Heliothis virescens). Kind of experiment: Example B.5: Action on tobacco budworm (Heliothis virescens), egg and larval mortality on insect diet. As to conditions: 120 h, egg and larval mortality after 5 days, read-out: mortality in comparison with untreated controls. The protocol:
For evaluating control of tobacco budworm (Heliothis virescens) the test unit consisted of 96-well-microtiter plates containing an insect diet and 15-25 H. virescens eggs.
The compounds were formulated using a solution containing 75% v/v water and 25% v/v DMSO. Different concentrations of formulated compounds were sprayed onto the insect diet at 10 μl, using a custom-built micro atomizer, at two replications.
After application, microtiter plates were incubated at about 28±1C and about 80±5% relative humidity for 5 days. Egg and larval mortality were then visually assessed.

Experiment [2] deals with boll weevil (Anthonomus grandis). Kind of experiment: Example B.3: Action on boll weevil (Anthonomus grandis), egg and larval mortality on insect diet. As to conditions: 120 h, egg and larval mortality after 5 days, read-out: mortality in comparison with untreated controls. The protocol:
For evaluating control of boll weevil (Anthonomus grandis) the test unit consisted of 96-well-microtiter plates containing an insect diet and 5-10 A. grandis eggs.
The compounds were formulated using a solution containing 75% (v/v) water and 25% (v/v) DMSO. Different concentrations of formulated compounds were sprayed onto the insect diet at […], using a custom-built micro atomizer, at two replications.
After application, microtiter plates were incubated at about 25±1C and about 75±5% relative humidity for 5 days. Egg and larval mortality were then visually assessed.

Experiment [3] has as its system yellow fever mosquito (Aedes aegypti). Put plainly: whole plant or invertebrate. As to conditions: 48 h, larval mortality after 2 days, read-out: mortality in comparison with untreated controls. The protocol: For evaluating control of yellow fever mosquito (Aedes aegypti) the test unit consisted of 96-well-microtiter plates containing 200 μl of tap water per well and 5-15 freshly hatched A. aegypti larvae.
The active compounds or mixtures were formulated using a solution containing 75% (v/v) water and 25% (v/v) DMSO. Different concentrations of formulated compounds or mixtures were sprayed onto the insect diet at 2.5 μl, using a custom-built micro atomizer, at two replications.
For experimental mixtures in these tests identical volumes of both mixing partners at the desired concentrations respectively, were mixed together.
After application, microtiter plates were incubated at 28 #1° C., 80 #5% RH for 2 days. Larval mortality was then visually assessed.

In experiment [4] the test system is Southern armyworm (Spodoptera eridania), 2nd instar larvae. Kind of experiment: Example B.7: Action on southern armyworm (Spodoptera eridania), 2nd instar larvae on sprayed lima bean plants. As to conditions: 96 h, 4 days after treatment, read-out: mortality in comparison with untreated controls. The protocol:
The active compounds were formulated by a Tecan liquid handler in 100% cyclohexanone as a 10,000-ppm solution supplied in tubes. The 10,000-ppm solution was serially diluted in 100% cyclohexanone to make interim solutions. These served as stock solutions for which final dilutions were made by the Tecan in 50% acetone:50% water (v/v) into 10 or 20 ml glass vials. A nonionic surfactant (Kinetic®) was included in the solution at a volume of 0.01% (v/v). The vials were then inserted into an automated electrostatic sprayer equipped with an atomizing nozzle for application to plants/insects.
Lima bean plants (variety Sieva) were grown 2 plants to a pot and selected for treatment at the 1st true leaf stage. Test solutions were sprayed onto the foliage by an automated electrostatic plant sprayer equipped with an atomizing spray nozzle. The plants were dried in the sprayer fume hood and then removed from the sprayer. Each pot was placed into perforated plastic bags with a zip closure. About 10 to 11 armyworm larvae were placed into the bag and the bags zipped closed. Test plants were maintained in a growth room at about 25° C. and about 20-40% relative humidity for 4 days, avoiding direct exposure to fluorescent light (24-hour photoperiod) to prevent trapping of heat inside the bags. Mortality and reduced feeding were assessed 4 days after treatment, compared to untreated control plants.

The test system of experiment [5] is Diamond back moth (Plutella xylostella). Put plainly: Example B.6: Action on diamond back moth (Plutella xylostella), cabbage leaf dip, 3rd instar larvae. As to conditions: foliar, 72 hours after treatment, read-out: mortality in comparison with untreated controls. The protocol:
The active compound is dissolved at the desired concentration in a mixture of 1:1 (v/v) distilled water: acetone. Surfactant (Kinetic® HV) is added at a rate of 0.01% (v/v). The test solution is prepared at the day of use.
Leaves of cabbage were dipped in test solution and air-dried. Treated leaves were placed in petri dishes lined with moist filter paper and inoculated with ten 3rd instar larvae. Mortality was recorded 72 hours after treatment. Feeding damages were also recorded using a scale of 0-100%.

For experiment [6], the system named is Orchid thrips (Dichromothrips corbetti). Put plainly: Example B.2: Action on orchid thrips (Dichromothrips corbetti), floral-immersion technique. Particulars: 72 hours after treatment, read-out: mortality in comparison with untreated controls. The protocol:
Dichromothrips corbetti adults used for bioassay were obtained from a colony maintained continuously under laboratory conditions. For testing purposes, the test compound is diluted in a 1:1 mixture of acetone:water (vol:vol), plus Kinetic® HV at a rate of 0.01% v/v.
Thrips potency of each compound was evaluated by using a floral-immersion technique. All petals of individual, intact orchid flowers were dipped into treatment solution and allowed to dryin Petri dishes. Treated petals were placed into individual re-sealable plastic along with about 20 adult thrips. All test arenas were held under continuous light and a temperature of about 28° C. for duration of the assay. After 3 days, the numbers of live thrips were counted on each petal. The percent mortality was recorded 72 hours after treatment.

Experiment [7] concerns Silverleaf whitefly (Bemisia argentifolii) (adults). Put plainly: Example B.4: Action on silverleaf whitefly (Bemisia argentifolii) adults on sprayed cotton plants. As to conditions: 72 h, 3 days after treatment, read-out: mortality in comparison with untreated controls. The protocol: The active compounds were formulated by a Tecan liquid handler in 100% cyclohexanone as a 10,000-ppm solution supplied in tubes. The 10,000-ppm solution was serially diluted in 100% cyclohexanone to make interim solutions. These served as stock solutions for which final dilutions were made by the Tecan in 50% acetone:50% water (v/v) into 5 or 10 ml glass vials. A nonionic surfactant (Kinetic®) was included in the solution at a volume of 0.01% (v/v). The vials were then inserted into an automated electrostatic sprayer equipped with an atomizing nozzle for application to plants/insects.
Cotton plants at the cotyledon stage (one plant per pot) were sprayed by an automated electrostatic plant sprayer equipped with an atomizing spray nozzle. The plants were dried in the sprayer fume hood and then removed from the sprayer. Each pot was placed into a plastic cup and about 10 to 12 whitefly adults (approximately 3-5 days old) were introduced. The insects were collected using an aspirator and a nontoxic Tygon® tubing connected to a barrier pipette tip. The tip, containing the collected insects, was then gently inserted into the soil containing the treated plant, allowing insects to crawl out of the tip to reach the foliage for feeding. Cups were covered with a reusable screened lid. […] Mortality was assessed 3 days after treatment, compared to untreated control plants.

Turning to `Cc1ccc(C(C)C)c(NC(=S)NC(=O)Nc2ccc(-c3nn(C)c(NC(=O)c4ccc(C(F)(F)F)cc4)c3C)cc2)c1` [Example C-3, N-[5-[4-[(2-isopropyl-5-methyl-phenyl)carbamothioylcarbamoylamino]phenyl]-2,4-dimethyl-pyrazol-3-yl]-4-(trifluoromethyl)benzamide], the mortality at 800 ppm was at least 75% in experiment [1], at least 75% in experiment [2] and at least 50% in experiment [3]. For the same molecule, the mortality at 300 ppm in experiment [4], in experiment [5] and in experiment [6] was at least 75% each time.
With `Cc1ccc(C(C)C)c(N2C(=O)CS/C2=N\C(=O)Nc2ccc(-c3nn(C)c(N(C)C(=O)c4ccc(C(F)(F)F)cc4)c3C)cc2)c1` [Example C-4, N-[5-[4-[[(Z)-[3-(2-isopropyl-5-methyl-phenyl)-4-oxo-thiazolidin-2-ylidene]carbamoyl]amino]phenyl]-2,4-dimethyl-pyrazol-3-yl]-N-methyl-4-(trifluoromethyl)benzamide], the figures for the mortality at 800 ppm in experiment [1], in experiment [2] and in experiment [3] were at least 75%, at least 75% and at least 50%, respectively. In addition, the mortality at 300 ppm in experiment [4], in experiment [5] and in experiment [6] was at least 75% each time.
`Cc1ccc(C(C)C)c(N2C(=O)CS/C2=N\C(=O)Nc2ccc(-c3nc(NC(=O)c4ccc(OC(F)(F)F)cc4)n(C)n3)cc2Cl)c1` [Example C-6, N-[5-[3-chloro-4-[[(Z)-[3-(2-isopropyl-5-methyl-phenyl)-4-oxo-thiazolidin-2-ylidene]carbamoyl]amino]phenyl]-2-methyl-1,2,4-triazol-3-yl]-4-(trifluoromethoxy)benzamide]: the results for the mortality at 800 ppm in experiment [1], in experiment [2] and in experiment [3] were at least 75%, at least 75% and at least 50%, respectively. The mortality at 300 ppm in experiment [4], in experiment [5], in experiment [6] and in experiment [7] was at least 75% each time.
Consider `Cc1ccc(C(C)C)c(N2C(=O)CS/C2=N\C(=O)Nc2ccc(-c3nn(C)c(NC(=O)c4ccc(OC(F)(F)F)cc4)c3C#N)cc2)c1` [Example C-7, N-[4-cyano-5-[4-[[(Z)-[3-(2-isopropyl-5-methyl-phenyl)-4-oxo-thiazolidin-2-ylidene]carbamoyl]amino]phenyl]-2-methyl-pyrazol-3-yl]-4-(trifluoromethoxy)benzamide], for which the values for the mortality at 800 ppm in experiment [1], in experiment [2] and in experiment [3] were at least 75%, at least 75% and at least 50%, respectively. For the same molecule, the mortality at 300 ppm in experiment [4], in experiment [5] and in experiment [6] was at least 75% throughout.
Regarding `Cc1ccc(C(C)C)c(N2C(=O)CS/C2=N\C(=O)Nc2ccc(-c3nn(C)c(NC(=O)c4ccc(OC(F)(F)F)cc4)c3C)cc2Cl)c1` [Example C-8, N-[5-[3-chloro-4-[[(Z)-[3-(2-isopropyl-5-methyl-phenyl)-4-oxo-thiazolidin-2-ylidene]carbamoyl]amino]phenyl]-2,4-dimethyl-pyrazol-3-yl]-4-(trifluoromethoxy)benzamide], the figures for the mortality at 800 ppm in experiment [1], in experiment [2] and in experiment [3] were at least 75%, at least 75% and at least 50%, respectively. Besides, the mortality at 300 ppm in experiment [4], in experiment [5] and in experiment [6] was at least 75% each time.
